PubChem BioAssay AID1259334 (Broad Institute, 2017)
The source made the active and inactive calls. No stated cut-off is given here; in the data, active means AC50 below about 11 µM.

These molecules were tested on B cell line, TNFa signaling counterscreen reporter (assay: TNFa pathway inhibition counter-screen, B-lineage cells – dose response (AID 1259334);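 further: cells stimulated with TNFa after compound preincubation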).
For `CC(C)(C)c1cc(C=C(C#N)C#N)cc(C(C)(C)C)c1O`, the AC50 was 1.22 µM.
Molecule `c1ccn2cc(-c3ccc4c(c3)OCCO4)nc2c1` has an AC50 of 9.69 µM.
In the case of `CC[N+]1(C)CCC(O)(c2ccc(OC)cc2)C(C(=O)c2ccc(OC)cc2)C1` (stereo not given), the AC50 is reported as 3.52 µM.
Molecule `O=C(NCCc1ccccc1)c1ccc2nccnc2c1` has an AC50 of 7.65 µM.
With `C[C@@H]1CN([C@H](C)CO)C(=O)c2c(c3ccccc3n2C)-c2ccccc2CO[C@H]1CN(C)Cc1cccc(C(F)(F)F)c1` the AC50 was > 20 µM (inactive).
`c1ccc2sc(-c3ccc4c(c3)OCO4)nc2c1` showed an AC50 of 8.09 µM.
`Cc1ccc(CN2CC(C(=O)Nc3ncc(C)s3)CC2=O)cc1` (stereo not given) showed an AC50 of 4.2 µM.
`Cn1cc(C2=C(c3cn(CCCSC(=N)N)c4ccccc34)C(=O)NC2=O)c2ccccc21` showed an AC50 of 0.305 µM.
`CCC1=C(CC2NCCc3ccccc32)CC2c3cc(OC)c(OC)cc3CCN2C1` (stereo not given) showed an AC50 of 1.19 µM.
Work on `O=C(Nc1ccccc1)N1CC(=O)N2[C@H](CO)[C@@H](c3ccc(C#CC4CCCCC4)cc3)[C@H]2C1` yielded an AC50 of 11.5 µM.
Molecule `Cc1c(C(=O)c2cccc3ccccc23)c2cccc3c2n1[C@H](CN1CCOCC1)CO3` has an AC50 of 10.2 µM.
Molecule `c1cc(-c2cnn3cc(-c4ccc(OCCN5CCCCC5)cc4)cnc23)ccn1` has an AC50 of 1.13 µM.
`Cn1cnc(CCNC(=O)C[C@@H]2CC[C@@H]3[C@H](COC[C@@H](O)CN3C(=O)Nc3ccc(C(F)(F)F)cc3)O2)c1` gave an AC50 of 9.53 µM.
With `N#Cc1cccc(-c2ccc(C3[C@@H]4CN(C(=O)Nc5ccc(C(F)(F)F)cc5)C[C@H]3N4)cc2)c1` (stereo not given in full) the AC50 was 10 µM.
With `CC12CCC3C(CCC4(O)CC(O)CCC34C=NO)C1(O)CCC2C1=COC(=O)C1` (stereo not given) the AC50 was 0.6 µM.
In the case of `COc1ccc(S(=O)(=O)Nc2ccc3c(c2)C(=O)N([C@H](C)CO)C[C@H](C)[C@@H](CN(C)Cc2ccc(C(F)(F)F)cc2)OCCCC[C@@H](C)O3)cc1`, the AC50 is reported as 8.37 µM.
Work on `COc1ccc(CNCCC(c2ccc(F)cc2)c2ccc(OC(C)C)cc2)cc1OC` (stereo not given) yielded an AC50 of 3.5 µM.
`CC(=O)NC12CC3CC(C1)CC(C(=O)OCC(=O)c1ccc4c(c1)OCCO4)(C3)C2` was tested, and the AC50 was 6.44 µM.
Molecule `CC(=O)O[C@H]1C[C@H](O[C@H]2[C@@H](O)C[C@H](O[C@H]3[C@@H](O)C[C@H](O[C@H]4CC[C@@]5(C)C(CCC6C5C[C@@H](O)[C@]5(C)[C@@H](C7=CC(=O)OC7)CC[C@]65O)C4)O[C@@H]3C)O[C@@H]2C)O[C@H](C)[C@H]1O[C@@H]1O[C@H](CO)[C@@H](O)[C@H](O)[C@H]1O` (stereo not given in full) has an AC50 of 1.01 µM.
`COc1ccc(C(=O)/C=C/C(=O)N(CC(=O)NC2CCCCC2)Cc2ccc(F)cc2)c(O)c1` showed an AC50 of 5.1 µM.
Molecule `COc1ccc(C(=O)CCN2CCc3cc(OC)c(OC)cc3C2)cc1` has an AC50 of 5.97 µM.
Work on `Cc1cc(C(=O)COC(=O)c2ccco2)c(C)n1Cc1ccco1` yielded an AC50 of 0.111 µM.
For `O=C1NC2C(=CC(O)C(O)C2O)c2cc3c(c(O)c21)OCO3` (stereo not given), the AC50 was 0.0423 µM.
`CN1C(=O)/C(=N\OC(=O)c2cccc3ccccc23)c2ccccc21` was tested, and the AC50 was 1.85 µM.
For `COc1cc2cc(C(=O)N3CC(COS(C)(=O)=O)c4ccc(O)cc43)[nH]c2c(OC)c1OC` (stereo not given), the AC50 was 0.00612 µM.
`Clc1ccc(CSC(Cn2ccnc2)c2ccc(Cl)cc2Cl)cc1` (stereo not given) was tested, and the AC50 was > 20 µM (inactive).
`C[C@H]1CN([C@@H](C)CO)C(=O)c2cccc(NC(=O)Nc3ccc(F)cc3)c2O[C@H]1CN(C)S(=O)(=O)c1ccc(Cl)cc1` showed an AC50 of 5.13 µM.
With `CC12CCC3C(CCC4(O)CC(O)CCC34C=O)C1(O)CCC2C1=CC(=O)OC1` (stereo not given) the AC50 was 3.75 µM.
Work on `CC(C)NC(=O)N1Cc2cc(C(=O)NC3Cc4ccccc4C3)nc(-c3cccc(-c4cccnc4)c3)c2[C@@H]1CCO` yielded an AC50 of 7.2 µM.
`CC(C)CCCCCCCCCCCCC(=O)NCC(=O)NC1C(O)C(O)C(Nc2ncnc3nc[nH]c23)OC1C(O)CO` (stereo not given) showed an AC50 of 0.00421 µM.
Molecule `OC(c1cc(-c2cccc(Cl)c2)nc2ccccc12)C1CCCCN1` (stereo not given) has an AC50 of 2.26 µM.
`Clc1ccc(C(Cn2ccnc2)OCc2ccsc2Cl)c(Cl)c1` (stereo not given) gave an AC50 of 4.05 µM.
`C[C@H]1CN([C@@H](C)CO)C(=O)c2c(c3ccccc3n2C)-c2ccccc2CO[C@H]1CN(C)C(=O)Nc1cccc(C(F)(F)F)c1` was tested, and the AC50 was > 20 µM (inactive).
`COc1c(O)cc2oc3cc(O)c(CC=C(C)C)c(O)c3c(=O)c2c1CC=C(C)C` showed an AC50 of 3.15 µM.
Work on `CC(C)OC(=O)c1cn(Cc2c(F)cccc2F)c2sc(-c3ccc(NC(=O)C(C)C)cc3)c(CN(C)Cc3ccccc3)c2c1=O` yielded an AC50 of 8.24 µM.
